Values quoted from earlier work, collected in article PMC4891020, “Preclinical evaluation of a nanoformulated antihelminthic, niclosamide, in ovarian cancer” (Oncotarget, 2016).
Values after ≈ are worked out from the molar mass of the structure shown.

Experiments:
[1] = design: method as in earlier work

O=C(Nc1ccc([N+](=O)[O-])cc1Cl)c1cc(Cl)ccc1O [Niclosamide, niclosamide]
systemic bioavailability when administered orally: ~10%
water solubility [1]: 0.23 µg/mL (≈ 0.703 µM)
